Assay results as given in patent US6355799B1, “Substituted benzene compounds, process for their preparation, and herbicidal and defoliant compositions containing them” (ISK Americas Incorporated, priority 1997, dated 2002).

Assays:
Format in all cases: in vivo
[1] = tested on: johnsongrass (Sorghum halepense, SORHA); test: Post-emerge test, greenhouse herbicide activity screening; conditions: phytotoxicity rating 0-100 (0 no damage, 100 complete death), 14 days after application
Procedure, shortened: (§1)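 Sandy loam pots; pre-emerge: sown 1 d pre-spray, surface-watered after, then bottom-watered. Post-emerge: sown 8–21 d before, 2–3 leaf stage, + 0.25% v/v NIS, bottom-watered. Acetone, 187 l/ha track spray, 15–1000 g ai/ha. 0–100 injury score, day 14.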

[2] = tested on: barnyardgrass (Echinochloa crus-galli, ECHCG); test: as above; conditions: phytotoxicity rating 0-100 (0 no damage, 100 complete death), 14 days after application
Procedure, shortened: as §1

[3] = tested on: velvetleaf (Abutilon theophrasti, ABUTH); test: as above; conditions: phytotoxicity rating 0-100 (0 no damage, 100 complete death), 14 days after application
Procedure, shortened: as §1

[4] = tested on: sicklepod (Cassia obtusifolia, CASOB); test: as above; conditions: phytotoxicity rating 0-100 (0 no damage, 100 complete death), 14 days after application
Procedure, shortened: as §1

[5] = tested on: redroot pigweed (Amaranthus retroflexus, AMARE); test: as above; conditions: phytotoxicity rating 0-100 (0 no damage, 100 complete death), 14 days after application
Procedure, shortened: as §1

[6] = tested on: lambsquarters (Chenopodium album, CHEAL); test: as above; conditions: phytotoxicity rating 0-100 (0 no damage, 100 complete death), 14 days after application
Procedure, shortened: as §1

[7] = tested on: large crabgrass (Digitaria sanguinalis, DIGSA); test: as above; conditions: phytotoxicity rating 0-100 (0 no damage, 100 complete death), 14 days after application
Procedure, shortened: as §1

[8] = tested on: ivyleaf morningglory (Ipomoea hederacea, IPOHE); test: as above; conditions: phytotoxicity rating 0-100 (0 no damage, 100 complete death), 14 days after application
Procedure, shortened: as §1

[9] = tested on: green foxtail (Setaria viridis, SETVI); test: as above; conditions: phytotoxicity rating 0-100 (0 no damage, 100 complete death), 14 days after application
Procedure, shortened: as §1

[10] = tested on: redroot pigweed (Amaranthus retroflexus, AMARE); test: Pre-emerge test, greenhouse herbicide activity screening; conditions: pre-emerge, rated 14 days after application, 0 = no damage, 100 = complete death
Procedure, shortened: as §1

[11] = tested on: field corn (Zea mays L., var. Dekalb 535, CORN); test: Pre-emerge test, crop safety; conditions: pre-emerge, rated 14 days after application, 0 = no damage, 100 = complete death
Procedure, shortened: (§2)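 Plants grown in 10 cm pots of sandy loam mix received acetone-dissolved compounds through a moving flat-fan nozzle. Doses ranged from 15 to 1000 g ai/ha. Pre-emerge pots were seeded one day earlier, post-emerge pots 8–21 days earlier. Fourteen days on, each pot was graded 0–100 for damage.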

[12] = tested on: upland rice (Oryza sp., var. Tebonnet, RICE); test: Pre-emerge test, crop safety; conditions: pre-emerge, rated 14 days after application, 0 = no damage, 100 = complete death
Procedure, shortened: as §2

[13] = tested on: johnsongrass (Sorghum halepense, SORHA); test: Pre-emerge test, greenhouse herbicide activity screening; conditions: pre-emerge, rated 14 days after application, 0 = no damage, 100 = complete death
Procedure, shortened: as §2

[14] = tested on: barnyardgrass (Echinochloa crus-galli, ECHCG); test: as above; conditions: pre-emerge, rated 14 days after application, 0 = no damage, 100 = complete death
Procedure, shortened: as §2

[15] = tested on: velvetleaf (Abutilon theophrasti, ABUTH); test: as above; conditions: pre-emerge, rated 14 days after application, 0 = no damage, 100 = complete death
Procedure, shortened: as §2

[16] = tested on: sicklepod (Cassia obtusifolia, CASOB); test: as above; conditions: pre-emerge, rated 14 days after application, 0 = no damage, 100 = complete death
Procedure, shortened: as §2

[17] = tested on: lambsquarters (Chenopodium album, CHEAL); test: as above; conditions: pre-emerge, rated 14 days after application, 0 = no damage, 100 = complete death
Procedure, shortened: as §2

[18] = tested on: large crabgrass (Digitaria sanguinalis, DIGSA); test: as above; conditions: pre-emerge, rated 14 days after application, 0 = no damage, 100 = complete death
Procedure, shortened: as §2

[19] = tested on: ivyleaf morningglory (Ipomoea hederacea, IPOHE); test: as above; conditions: pre-emerge, rated 14 days after application, 0 = no damage, 100 = complete death
Procedure, shortened: as §2

[20] = tested on: green foxtail (Setaria viridis, SETVI); test: as above; conditions: pre-emerge, rated 14 days after application, 0 = no damage, 100 = complete death
Procedure, shortened: as §2

[21] = tested on: field corn (Zea mays L., var. Dekalb 535, CORN); test: Post-emerge test, crop safety; conditions: phytotoxicity rating 0-100 (0 no damage, 100 complete death), 14 days after application
Procedure, shortened: (§3)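 Each test used a mechanized track sprayer delivering 187 l/ha of acetone solution at 15–1000 g ai/ha. Post-emerge foliage at 2–3 leaves was treated with added 0.25% v/v non-ionic surfactant and bottom-watered only. Injury was assessed on day 14, where 100 means total kill.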

[22] = tested on: upland rice (Oryza sp., var. Tebonnet, RICE); test: Post-emerge test, crop safety; conditions: phytotoxicity rating 0-100 (0 no damage, 100 complete death), 14 days after application
Procedure, shortened: as §3

C=C(C)C(=O)N(C(=O)C(=C)C)c1c(OC)c(Cl)cc(F)c1-n1c(=O)cc(C(F)(F)F)n(C)c1=O [2-6]
10: Post-emerge Herbicidal Activity AMARE ([5]; 250 g ai/ha) | Pre-emerge Herbicidal Activity DIGSA (phytotoxicity rating, scale 0-100) ([18]; 250 g ai/ha)
20: Pre-emerge Herbicidal Activity SORHA (phytotoxicity rating, scale 0-100) ([13]; 250 g ai/ha)
80: Pre-emerge Herbicidal Activity SETVI (phytotoxicity rating, scale 0-100) ([20]; 250 g ai/ha)
70: Post-emerge Herbicidal Activity ABUTH ([3]; 250 g ai/ha)
30: Post-emerge Herbicidal Activity CHEAL ([6]; 250 g ai/ha) | Post-emerge Herbicidal Activity IPOHE ([8]; 250 g ai/ha)
50: Pre-emerge Herbicidal Activity AMARE (phytotoxicity rating, scale 0-100) ([10]; 250 g ai/ha)
0: Post-emerge Herbicidal Activity SORHA ([1]; 63 g ai/ha) | Post-emerge Herbicidal Activity SORHA ([1]; 250 g ai/ha) | Post-emerge Herbicidal Activity ECHCG ([2]; 63 g ai/ha) | Post-emerge Herbicidal Activity ECHCG ([2]; 250 g ai/ha) | Post-emerge Herbicidal Activity ABUTH ([3]; 63 g ai/ha) | Post-emerge Herbicidal Activity CASOB ([4]; 63 g ai/ha) | Post-emerge Herbicidal Activity CASOB ([4]; 250 g ai/ha) | Post-emerge Herbicidal Activity AMARE ([5]; 63 g ai/ha) | Post-emerge Herbicidal Activity CHEAL ([6]; 63 g ai/ha) | Post-emerge Herbicidal Activity DIGSA ([7]; 63 g ai/ha) | Post-emerge Herbicidal Activity DIGSA ([7]; 250 g ai/ha) | Post-emerge Herbicidal Activity IPOHE ([8]; 63 g ai/ha) | Post-emerge Herbicidal Activity SETVI ([9]; 63 g ai/ha) | Post-emerge Herbicidal Activity SETVI ([9]; 250 g ai/ha) | Pre-emerge Herbicidal Activity AMARE (phytotoxicity rating, scale 0-100) ([10]; 63 g ai/ha) | Pre-emerge crop damage CORN (phytotoxicity rating, scale 0-100) ([11]; 63 g ai/ha) | Pre-emerge crop damage CORN (phytotoxicity rating, scale 0-100) ([11]; 250 g ai/ha) | Pre-emerge crop damage RICE (phytotoxicity rating, scale 0-100) ([12]; 63 g ai/ha) | Pre-emerge crop damage RICE (phytotoxicity rating, scale 0-100) ([12]; 250 g ai/ha) | Pre-emerge Herbicidal Activity SORHA (phytotoxicity rating, scale 0-100) ([13]; 63 g ai/ha) | Pre-emerge Herbicidal Activity ECHCG (phytotoxicity rating, scale 0-100) ([14]; 63 g ai/ha) | Pre-emerge Herbicidal Activity ECHCG (phytotoxicity rating, scale 0-100) ([14]; 250 g ai/ha) | Pre-emerge Herbicidal Activity ABUTH (phytotoxicity rating, scale 0-100) ([15]; 63 g ai/ha) | Pre-emerge Herbicidal Activity ABUTH (phytotoxicity rating, scale 0-100) ([15]; 250 g ai/ha) | Pre-emerge Herbicidal Activity CASOB (phytotoxicity rating, scale 0-100) ([16]; 63 g ai/ha) | Pre-emerge Herbicidal Activity CASOB (phytotoxicity rating, scale 0-100) ([16]; 250 g ai/ha) | Pre-emerge Herbicidal Activity CHEAL (phytotoxicity rating, scale 0-100) ([17]; 63 g ai/ha) | Pre-emerge Herbicidal Activity CHEAL (phytotoxicity rating, scale 0-100) ([17]; 250 g ai/ha) | Pre-emerge Herbicidal Activity DIGSA (phytotoxicity rating, scale 0-100) ([18]; 63 g ai/ha) | Pre-emerge Herbicidal Activity IPOHE (phytotoxicity rating, scale 0-100) ([19]; 63 g ai/ha) | Pre-emerge Herbicidal Activity IPOHE (phytotoxicity rating, scale 0-100) ([19]; 250 g ai/ha) | Pre-emerge Herbicidal Activity SETVI (phytotoxicity rating, scale 0-100) ([20]; 63 g ai/ha) | Post-emerge Herbicidal Activity CORN (crop damage) ([21]; 63 g ai/ha) | Post-emerge Herbicidal Activity RICE (crop damage) ([22]; 63 g ai/ha) | Post-emerge Herbicidal Activity RICE (crop damage) ([22]; 250 g ai/ha)
5: Post-emerge Herbicidal Activity CORN (crop damage) ([21]; 250 g ai/ha)
